For assay [1], the target named is T1, human NRP1-b1 domain (Homo sapiens, UniProt O14786). Nature of the assay: NMR competition titration of 15N-ClTx/NRP1-b1 with EG00229. The format is binding. The settings on record: 413 μM EG00229 added to 55 μM 15N-ClTx + 125 μM NRP1-b1; 50 mM sodium citrate pH 5.5, 150 mM NaCl, 5% D2O, 298 K.
Assay [2] deals with T1, human NRP1-b1 domain. Nature of the assay: ITC measurement of binding to NRP1-b1 domain. The following applies: pH 5.5, 32 °C.
Assay [3] has as its target T1, human NRP1-b1 domain. Nature of the assay: ITC competition: ClTx injected into NRP1-b1 in presence of EG00229. The following applies: 800 μM ClTx into 40 μM NRP1-b1 + 200 μM EG00229; 50 mM sodium citrate pH 5.5, 150 mM NaCl, 32 °C. The format is binding.

The structures appear in SMILES notation. “Also recorded” adds a separate entry of the source.

T1 sequence (O14786 273-427): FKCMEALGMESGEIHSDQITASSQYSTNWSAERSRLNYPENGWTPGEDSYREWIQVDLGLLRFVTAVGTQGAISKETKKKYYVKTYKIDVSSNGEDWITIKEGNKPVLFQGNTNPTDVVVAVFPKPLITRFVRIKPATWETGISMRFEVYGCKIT

As to `NC(N)=NCCC[C@H](NC(=O)c1sccc1NS(=O)(=O)c1cccc2nsnc12)C(=O)O` [EG00229], the “recovery of backbone signal of 15N ClTx on addition of EG00229” value in assay [1] was “completely recovered”. In addition, in assay [2], the “binding strength, in words” value is “strong binding”. Also, in assay [3], the “inhibition of the ClTx–NRP1-b1 interaction by EG00229” value was “fully inhibited; also recorded: completely blocks chlorotoxin from binding”.

Source of the values: PMC8358460, “Structural basis for the binding of the cancer targeting scorpion toxin, ClTx, to the vascular endothelia growth factor receptor neuropilin-1” (Current Research in Structural Biology, 2021).
